Among the data in US10471046B2, “Method for treating, preventing, or reducing the risk of skin infection” (Melinta Subsidiary Corp., priority 2014, dated 2019) are MIC values, retold here.

Each structure is given as a SMILES string. In brackets after ≈: the same amount, converted by molar mass.

For the test, the system named is S. aureus. In words: Minimum inhibitory concentrations (MICs) for S. aureus of exemplary compounds (Table 2). Format: cell-based. As to conditions: Staphylococcus aureus, minimum inhibitory concentrations for S. aureus; read-out: MICs. The gist of the method:
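Growth of S. aureus in media with or without compound, by broth microdilution in microtiter trays following NCCLS M7-A5 guidelines. Values are MICs in μg/mL.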
Regarding `CC(=O)NC[C@H]1CN(c2ccc(-c3ccc(CSc4nnc(N)[nH]4)cc3)c(F)c2)C(=O)O1` [Compound 2028, N-{3-[4′-(5-Amino-4H-[1,2,4]triazol-3-ylsulfanylmethyl)-2-fluoro-biphenyl-4-yl]-2-oxo-oxazolidin-5-(S)-ylmethyl}-acetamide], the MIC came to 0.25 µg/mL (≈ 0.548 µM).

For `CC(=O)NC[C@H]1CN(c2ccc(-c3ccc(CSc4nncs4)cc3)c(F)c2)C(=O)O1` [Compound 2029, N-{3-[2-Fluoro-4′-([1,3,4]thiadiazol-2-ylsulfanylmethyl)-biphenyl-4-yl]-2-oxo-oxazolidin-5-(S)-ylmethyl}-acetamide], the MIC is 0.25 µg/mL (≈ 0.545 µM).

On to `CC(=O)NC[C@H]1CN(c2ccc(-c3ccc(CSc4nccs4)cc3)c(F)c2)C(=O)O1` [Compound 2030, N-{3-[2-Fluoro-4′-(thiazol-2-ylsulfanylmethyl)-biphenyl-4-yl]-2-oxo-oxazolidin-5-(S)-ylmethyl}-acetamide], for which the MIC stood at 1 µg/mL (≈ 2.19 µM).

Regarding `CC(=O)NC[C@H]1CN(c2ccc(-c3ccc(CSc4nc(C)cs4)cc3)c(F)c2)C(=O)O1` [Compound 2031, N-{3-[2-Fluoro-4′-(4-methyl-thiazol-2-ylsulfanylmethyl)-biphenyl-4-yl]-2-oxo-oxazolidin-5-(S)-ylmethyl}-acetamide], the MIC came to 1 µg/mL (≈ 2.12 µM).

`CC(=O)NC[C@H]1CN(c2ccc(-c3ccc(CSc4ncc[nH]4)cc3)c(F)c2)C(=O)O1` [Compound 2032, N-{3-[2-Fluoro-4′-(1H-imidazol-2-ylsulfanylmethyl)-biphenyl-4-yl]-2-oxo-oxazolidin-5-(S)-ylmethyl}-acetamide]: the MIC worked out at 1 µg/mL (≈ 2.27 µM).

As to `CC(=O)NC[C@H]1CN(c2ccc(-c3ccc(CSc4ncnn4C)cc3)c(F)c2)C(=O)O1` [Compound 2033, N-{3-[2-Fluoro-4′-(2-methyl-2H-[1,2,4]triazol-3-ylsulfanylmethyl)-biphenyl-4-yl]-2-oxo-oxazolidin-5-(S)-ylmethyl}-acetamide], the MIC came out at 1 µg/mL (≈ 2.2 µM).

As to `CC(=O)NC[C@H]1CN(c2ccc(-c3ccc(C[S+]([O-])c4nncs4)cc3)c(F)c2)C(=O)O1` (stereo partly drawn) [Compound 2035, N-{3-[2-Fluoro-4′-([1,3,4]thiadiazole-2-sulfinylmethyl)-biphenyl-4-yl]-2-oxo-oxazolidin-5-(S)-ylmethyl}-acetamide], the MIC was found to be 1 µg/mL (≈ 2.11 µM).

As to `CC(=O)NC[C@H]1CN(c2ccc(-c3ccc(C[S+]([O-])c4nccs4)cc3)c(F)c2)C(=O)O1` (stereo partly drawn) [Compound 2036, N-{3-[2-Fluoro-4′-(thiazole-2-sulfinylmethyl)-biphenyl-4-yl]-2-oxo-oxazolidin-5-(S)-ylmethyl}-acetamide], the MIC was found to be 1 µg/mL (≈ 2.11 µM).

For `CC(=O)NC[C@H]1CN(c2ccc(-c3ccc(C[S+]([O-])c4nc(C)cs4)cc3)c(F)c2)C(=O)O1` (stereo partly drawn) [Compound 2037, N-{3-[2-Fluoro-4′-(4-methyl-thiazole-2-sulfinylmethyl)-biphenyl-4-yl]-2-oxo-oxazolidin-5-(S)-ylmethyl}-acetamide], the MIC was 1 µg/mL (≈ 2.05 µM).

As for `CC(=O)NC[C@H]1CN(c2ccc(-c3ccc(C[S+]([O-])c4ncc[nH]4)cc3)c(F)c2)C(=O)O1` (stereo partly drawn) [Compound 2038, N-{3-[2-Fluoro-4′-(1H-imidazole-2-sulfinylmethyl)-biphenyl-4-yl]-2-oxo-oxazolidin-5-(S)-ylmethyl}-acetamide], the MIC was 2 µg/mL (≈ 4.38 µM).

For `CC(=O)NC[C@H]1CN(c2ccc(-c3ccc(C[S+]([O-])c4ncnn4C)cc3)c(F)c2)C(=O)O1` (stereo partly drawn) [Compound 2039, N-{3-[2-Fluoro-4′-(2-methyl-2H-[1,2,4]triazole-3-sulfinylmethyl)-biphenyl-4-yl]-2-oxo-oxazolidin-5-(S)-ylmethyl}-acetamide], the MIC was found to be 2 µg/mL (≈ 4.24 µM).

With `CC(=O)NC[C@H]1CN(c2ccc(-c3ccc(CSc4cnn[nH]4)nc3)c(F)c2)C(=O)O1` [Compound 2040, N-(3-{3-Fluoro-4-[6-(3H-[1,2,3]triazol-4-ylsulfanylmethyl)-pyridin-3-yl]-phenyl}-2-oxo-oxazolidin-5-(S)-ylmethyl)-acetamide], the MIC stood at 0.25 µg/mL (≈ 0.565 µM).

`CC(=O)NC[C@H]1CN(c2ccc(-c3ccc(/C=N/Nc4ccccn4)cc3)c(F)c2)C(=O)O1` [Compound 2041, N-{3-[2-Fluoro-4′-(pyridin-2-yl-hydrazonomethyl)-biphenyl-4-yl]-2-oxo-oxazolidin-5-(S)-ylmethyl}-acetamide]: the MIC was determined as 1 µg/mL (≈ 2.23 µM).

For `CC(=O)NC[C@H]1CN(c2ccc(-c3ccc(/C=N/Nc4nccc(C(F)(F)F)n4)cc3)c(F)c2)C(=O)O1` [Compound 2042, N-(3-{2-Fluoro-4′-[(4-trifluoromethyl-pyrimidin-2-yl)-hydrazonomethyl]-biphenyl-4-yl}-2-oxo-oxazolidin-5-(S)-ylmethyl)-acetamide], the MIC was 128 µg/mL (≈ 248 µM).

For the compound `CC(=O)NC[C@H]1CN(c2ccc(-c3ccc(CNS(=O)(=O)c4cn(C)cn4)cc3)c(F)c2)C(=O)O1` [Compound 2043, N-(3-{2-Fluoro-4′-[(1-methyl-1H-imidazole-4-sulfonylamino)-methyl]-biphenyl-4-yl}-2-oxo-oxazolidin-5-(S)-ylmethyl)-acetamide], the MIC came to 2 µg/mL (≈ 3.99 µM).

On to `CC(=O)NC[C@H]1CN(c2ccc(-c3ccc(CNS(=O)(=O)c4ccc(N5CCOCC5)nc4)cc3)c(F)c2)C(=O)O1` [Compound 2044, N-(3-{2-Fluoro-4′-[(6-morpholin-4-yl-pyridine-3-sulfonylamino)-methyl]-biphenyl-4-yl}-2-oxo-oxazolidin-5-(S)-ylmethyl)-acetamide], for which the MIC is 128 µg/mL (≈ 219 µM).

`CC(=O)NC[C@H]1CN(c2ccc(-c3ccc(CS(=O)(=O)Nc4cccnc4)cc3)c(F)c2)C(=O)O1` [Compound 2045, N-{3-[2-Fluoro-4′-(pyridin-3-ylsulfamoylmethyl)-biphenyl-4-yl]-2-oxo-oxazolidin-5-(S)-ylmethyl}-acetamide]: the MIC was found to be 2 µg/mL (≈ 4.01 µM).

For the compound `CC(=O)NC[C@H]1CN(c2ccc(-c3ccc(CNn4cnnc4)cc3)c(F)c2)C(=O)O1` [Compound 2046, N-{3-[2-Fluoro-4′-([1,2,4]triazol-4-ylaminomethyl)-biphenyl-4-yl]-2-oxo-oxazolidin-5-(S)-ylmethyl}-acetamide], the MIC is 1 µg/mL (≈ 2.36 µM).

With `CC(=O)NC[C@H]1CN(c2ccc(-c3ccc(CSc4ncn[nH]4)cc3)c(F)c2)C(=O)O1` [Compound 2047, N-{3-[2-Fluoro-4′-(2H-[1,2,4]triazol-3-ylsulfanylmethyl)-biphenyl-4-yl]-2-oxo-oxazolidin-5-(S)-ylmethyl}-acetamide], the MIC came to 0.25 µg/mL (≈ 0.566 µM).

Regarding `CC(=O)NC[C@H]1CN(c2ccc(-c3ccc(CNNc4ccccn4)cc3)c(F)c2)C(=O)O1` [Compound 2048, N-{3-[2-Fluoro-4′-(N′-pyridin-2-yl-hydrazinomethyl)-biphenyl-4-yl]-2-oxo-oxazolidin-5-(S)-ylmethyl}-acetamide], the MIC amounted to 0.5 µg/mL (≈ 1.11 µM).

`CC(=O)NC[C@H]1CN(c2ccc(-c3ccc(CNNC4=NCCN4)cc3)c(F)c2)C(=O)O1` [Compound 2049, N-(3-{4′-[N′-(4,5-Dihydro-1H-imidazol-2-yl)-hydrazinomethyl]-2-fluoro-biphenyl-4-yl}-2-oxo-oxazolidin-5-(S)-ylmethyl)-acetamide]: the MIC came out at 2 µg/mL (≈ 4.54 µM).

Regarding `CC(=O)NC[C@H]1CN(c2ccc(-c3ccc(CNc4ccon4)cc3)c(F)c2)C(=O)O1` [Compound 2050, N-{3-[2-Fluoro-4′-(isoxazol-3-ylaminomethyl)-biphenyl-4-yl]-2-oxo-oxazolidin-5-(S)-ylmethyl}-acetamide], the MIC was 0.25 µg/mL (≈ 0.589 µM).

For `CC(=O)NC[C@H]1CN(c2ccc(-c3ccc(CNS(=O)(=O)c4cccc5cccnc45)cc3)c(F)c2)C(=O)O1` [Compound 2051, N-(3-{2-Fluoro-4′-[(quinoline-8-sulfonylamino)-methyl]-biphenyl-4-yl}-2-oxo-oxazolidin-5-(S)-ylmethyl)-acetamide], the MIC was 4 µg/mL (≈ 7.29 µM).

In the case of `CC(=O)NC[C@H]1CN(c2ccc(-c3ccc(CNc4nc[nH]c4C(N)=O)cc3)c(F)c2)C(=O)O1` [Compound 2055, 5-({4′-[5-(S)-(Acetylamino-methyl)-2-oxo-oxazolidin-3-yl]-2′-fluoro-biphenyl-4-ylmethyl}-amino)-3H-imidazole-4-carboxylic acid amide], the MIC was found to be 4 µg/mL (≈ 8.57 µM).

For `CC(=O)NC[C@H]1CN(c2ccc(-c3ccc(/C=N/N4CCOCC4)cc3)c(F)c2)C(=O)O1` [Compound 2056, N-{3-[2-Fluoro-4′-(morpholin-4-yliminomethyl)-biphenyl-4-yl]-2-oxo-oxazolidin-5-(S)-ylmethyl}-acetamide], the MIC came to 0.25 µg/mL (≈ 0.568 µM).

On to `CC(=O)NC[C@H]1CN(c2ccc(-c3ccc(CNN4CCN(C)CC4)cc3)c(F)c2)C(=O)O1` [Compound 2057, N-(3-{2-Fluoro-4′-[(4-methyl-piperazin-1-ylamino)-methyl]-biphenyl-4-yl}-2-oxo-oxazolidin-5-(S)-ylmethyl)-acetamide], for which the MIC was 1 µg/mL (≈ 2.2 µM).

Turning to `CC(=O)NC[C@H]1CN(c2ccc(-c3ccc(CNS(=O)(=O)c4ccc(C(F)(F)F)cc4)cc3)c(F)c2)C(=O)O1` [Compound 2058, N-(3-{2-Fluoro-4′-[(4-trifluoromethyl-benzenesulfonylamino)-methyl]-biphenyl-4-yl}-2-oxo-oxazolidin-5-(S)-ylmethyl)-acetamide], the MIC was 32 µg/mL (≈ 56.6 µM).

For the compound `CC(=O)NC[C@H]1CN(c2ccc(-c3ccc(CN[C@H]4CCCNC4=O)cc3)c(F)c2)C(=O)O1` [Compound 2059, N-(3-{2-Fluoro-4′-[(2-oxo-piperidin-3-(S)-ylamino)-methyl]-biphenyl-4-yl}-2-oxo-oxazolidin-5-(S)-ylmethyl)-acetamide], the MIC turned out to be 2 µg/mL (≈ 4.4 µM).

As for `CC(=O)NC[C@H]1CN(c2ccc(-c3ccc(SCc4ccncc4)cc3)c(F)c2)C(=O)O1` [Compound 3001, N-{3-[2-Fluoro-4′-(pyridin-4-ylmethylsulfanyl)-biphenyl-4-yl]-2-oxo-oxazolidin-5-(S)-ylmethyl}-acetamide], the MIC worked out at 1 µg/mL (≈ 2.21 µM).

As to `CC(=O)NC[C@H]1CN(c2ccc(-c3ccc([S+]([O-])Cc4ccncc4)cc3)c(F)c2)C(=O)O1` (stereo partly drawn) [Compound 3002, N-{3-[2-Fluoro-4′-(pyridin-4-ylmethanesulfinyl)-biphenyl-4-yl]-2-oxo-oxazolidin-5-(S)-ylmethyl}-acetamide], the MIC was determined as 1 µg/mL (≈ 2.14 µM).
